In patent US20250327032A1, “AGENT FOR AVOIDING IMMUNE RESPONSE OF TRANSGENIC CELLS” (HYPERION DRUG DISCOVERY CO., LTD., priority 2021, published 2025):

How the values were obtained:
[1] = tested on: human mesenchymal stem cells; experiment: Introduction of GFP mRNA by lipofection, yield of GFP-positive cells; format: cell-based; conditions: 10 pg/cell
Experimental: (§1) Human mesenchymal stem cells were seeded in a 6-well plate to be about 10,000 cells/cm^2. Human myoblasts were seeded in another 6-well plate to be about 20,000 cells/cm^2. As a culture solution, a basal medium for each cell supplemented with 0.1, 1, or 10 μM of JSH-23 was used. As a control, a basal medium for each cell supplemented with 0.1% (v/v) DMSO instead of JSH-23 was used as a culture solution.
(§2) A lipofection solution was prepared by adding Lipofectamine RNAiMAX and fluorescent protein GFP mRNA to OptiMEM. As the GFP mRNA, that containing uridine or that containing pseudouridine instead of uridine was used. In addition, for those containing pseudouridine, a basal medium for each cell supplemented with 1 μM of JSH-23 was used, and as a control, a basal medium for each cell supplemented with 0.1% (v/v) DMSO instead of JSH-23 was used as a culture solution. It was prepared so that the amount of mRNA was 10 pg/cell for human mesenchymal stem cells and 5 pg/cell for human myoblasts. The prepared lipofection solution was mixed well according to the manufacturer's recommended protocol and allowed to stand at room temperature for about 15 minutes.
(§3) Next, each lipofection solution was added to the plate seeded with human mesenchymal stem cells or human myoblasts, and cultured in a CO2 incubator at 37° C. for about 1 day (18 hours) (human mesenchymal stem cells) or for 2 days (42 hours) (human myoblasts). After culturing, all the culture solution comprising the lipofection solution was removed and replaced with a new culture solution having the same composition as before the addition of the lipofection solution.
(§4) After another 6 hours, the above lipofection solution was newly prepared, added again to the plate seeded with human mesenchymal stem cells or human myoblasts, and cultured in a CO2 incubator at 37° C. for about 1 day (18 hours) (mesenchymal stem cells) or about 2 days (42 hours) (human myoblasts). These steps were repeated so that the introduction of genes was performed a total of 4 times.
(§5) Twenty-four hours after the final introduction of genes, the cells were detached with a cell detachment solution, centrifuged at 600×g for 5 minutes using a centrifuge, to collect the cells. The collected cells were counted using a hemocytometer. Furthermore, the GFP-positive percentage of the collected cells was measured using a flow cytometer. The yield of the number of GFP-positive cells was calculated from the number of cells counted and the GFP-positive rate.
as §1, with “1” for “0.1, 1, or 10”, “calcitriol” for “JSH-23”
(§6) A lipofection solution was prepared by adding Lipofectamine RNAiMAX and fluorescent protein GFP mRNA to OptiMEM. As the GFP mRNA, that containing uridine, or that containing pseudouridine instead of uridine was used. It was prepared so that the amount of mRNA was 10 pg/cell for human mesenchymal stem cells and 5 pg/cell for human myoblasts. The prepared lipofection solution was mixed well according to the manufacturer's recommended protocol and allowed to stand at room temperature for about 15 minutes.

human myoblasts = experiment: as above; format: cell-based; conditions: 5 pg/cell
Experimental: as §1, §2, §3, §4, §5
as §1, with “1” for “0.1, 1, or 10”, “calcitriol” for “JSH-23”
as §6

[2] = tested on: human mesenchymal stem cells; experiment: Introduction of increased amount of GFP mRNA (20 pg/cell), yield of GFP-positive cells; format: cell-based; conditions: JSH-23 1 μM, versus 20 pg/cell without JSH-23
Experimental: Human mesenchymal stem cells were seeded in a 6-well plate to be about 10,000 cells/cm^2. As a culture solution, αMEM (+10% serum) supplemented with 1 μM of JSH-23 or αMEM (+10% serum) supplemented with 0.1% (v/v) DMSO instead of JSH-23 was used.
A lipofection solution was prepared by adding Lipofectamine RNAiMAX and fluorescent protein GFP mRNA to OptiMEM. It was prepared so that the amount of mRNA was 10 pg/cell or 20 pg/cell. The prepared lipofection solution was mixed well according to the manufacturer's recommended protocol and allowed to stand at room temperature for about 15 minutes.
Next, a lipofection solution prepared so that the amount of mRNA was 20 pg/cell was added to a plate that used, as a culture solution, αMEM (+10% serum) supplemented with DMSO or JSH-23, respectively. […]
as §5, with “percentage.” for “rate.”

IFN-α = IFN-α expression level (qPCR) after introduction of GFP-tagged CAR-T plasmid; format: cell-based, human; conditions: Jurkat E6.1; JSH-23 0.1 μM; compared to CAR-T plasmid introduced without JSH-23
[3] = GFP mRNA containing pseudouridine instead of uridine, JSH-23 1 μM

Cc1ccc(NCCCc2ccccc2)c(N)c1 [JSH-23]
yield of GFP-positive cells compared to the control (control set to 1) [1, 3]: ≥ 7 times
yield of GFP-positive cells compared to the control (control set to 1) ([1]; GFP mRNA containing uridine, 4 introductions, JSH-23 0.1, 1 or 10 μM, maximal at 1 μM, control 0.1% DMSO): ≥ 7 times
yield of GFP-positive cells compared to the control (control set to 1) (human myoblasts; [3]): ≥ 2 times
yield of GFP-positive cells compared to the control (control set to 1) (human myoblasts; GFP mRNA containing uridine, JSH-23 0.1, 1 or 10 μM): ≥ 3 times
number of GFP-positive cells [2]: increased
increase in the expression level of IFN-α (IFN-α): reduced
